US20160022714A1, “O-GLCNACYLATION TREATMENT FOR ISCHEMIC BRAIN INJURY” (THE RESEARCH FOUNDATION FOR MENTAL HYGIENE, INC., priority 2014, published 2016)
Entries after “also recorded” stand apart in the source; their conditions may differ.

How the values were obtained:
[1] = tested on: O-GlcNAcylation of brain proteins; experiment: Western blots for O-GlcNAcylation of brain (striatum) homogenates from drug-treated mice 2 hrs after MCAO; type: in vivo, mouse; conditions: for brain O-GlcNAcylation level (change): mice treated prior to ischemia: DON 2.6 μg/mouse, glucosamine 10 mg/mouse, thiamet-G 160 μg/mouse, brain samples 2 hrs after ischemic insult
[2] = tested on: MCAO mouse model (cerebral ischemia-reperfusion injury); experiment: Scores of motor deficits (5-point neurological scoring) after MCAO for 2 hrs and reperfusion for 1 hr; type: in vivo; conditions: vs. saline
[3] = tested on: MCAO mouse model (cerebral ischemia-reperfusion injury); experiment: Brain infarct size by TTC staining after MCAO for 2 hrs followed by reperfusion for 24 hrs; type: in vivo; conditions: vs. saline; for infarct size / ischemia-induced brain damage: DON 2.6 μg/mouse, glucosamine 10 mg/mouse, thiamet-G 160 μg/mouse prior to ischemia, 24 hrs after ischemia-reperfusion
[4] = DON 2.6 μg/mouse, glucosamine 10 mg/mouse, thiamet-G 160 μg/mouse prior to ischemia, one hour after ischemia-reperfusion

Row | SMILES | brain O-GlcNAcylation level (change) [1] | motor deficits [2, 4] | infarct size / ischemia-induced brain damage [3] | elevation of O-GlcNAcylation ([1]; thiamet-G 0.1 μg/mouse, icy injection 24 hrs before MCAO, compared with 10 mg glucosamine/mouse i.p.) | elevation of O-GlcNAcylation ([1]; thiamet-G initial dose 160 μg/mouse, 2 hrs after MCAO) [fold] | motor deficits ([2]; thiamet-G 0.1 μg/mouse, icy injection, MCAO 2 hrs, reperfusion 1 hr) | infarct size ([3]; thiamet-G 0.1 μg/mouse, icy injection, MCAO 2 hrs, reperfusion 24 hrs)
1 | N[C@H]1C(O)O[C@H](CO)[C@@H](O)[C@@H]1O (stereo partly shown) [glucosamine] | moderate elevation | ameliorated; also recorded: reduced | ameliorated; also recorded: reduced | – | – | – | –
2 | CCN=C1N[C@@H]2[C@@H](O)[C@H](O)[C@@H](CO)O[C@@H]2S1 [thiamet-G] | elevation | more severe; also recorded: worsened | more severe brain damage; also recorded: worsened | comparable elevation | > 6 | reduced | reduced
3 | [N-]=[N+]=CC(=O)CC[C@H](N)C(=O)O [DON, 6-diazo-5-oxonorleucine] | reduction; also recorded: reduced | aggravated; also recorded: increased | aggravated; also recorded: increased | – | – | – | –
